According to patent US5175283A, “Azetidin-2-one derivatives as serine protease inhibitors” (Bristol-Myers Squibb Company, priority 1992, dated 1992):
pIC50: −log10 of the molar value. Values joined by “and” are separate entries in the source; they are usually repeats but may differ in a detail not shown here. Identical values can stand only once. Counter-ions that a name gives are not always drawn.

Tests used:
[1] = target: T1, bovine pancreatic trypsin (Bos taurus, UniProt P00760); experiment: Enzyme assay for the inhibition of trypsin (Z-Val-Gly-Arg-pNA substrate); assay type: biochemical; conditions: 3 min incubation of drug with enzyme, room temperature, pH 8.0; read-out: Trypsin IC50
T1 construct: purified bovine pancreatic trypsin dissolved in trypsin assay buffer
T1 sequence (P00760 24-246): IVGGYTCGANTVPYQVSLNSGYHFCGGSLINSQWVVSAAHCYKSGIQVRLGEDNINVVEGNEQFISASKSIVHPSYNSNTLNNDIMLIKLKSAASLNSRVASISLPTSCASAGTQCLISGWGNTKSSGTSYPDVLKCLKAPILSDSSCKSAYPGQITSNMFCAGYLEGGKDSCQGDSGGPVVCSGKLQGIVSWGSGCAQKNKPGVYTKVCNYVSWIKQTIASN
Description: 2. Enzyme Assays for the Inhibition of Trypsin
(§1) The following reagents were used in these assays:
Trypsin assay buffer: 2 mM CaCl2, 50 mM Tris/Cl pH 8.0.
3 mM Z-Val-Gly-Arg-pNA (Chromzyme TRy) dissolved in H2 O.
6 μg/ml of purified bovine pancreatic trypsin dissolved in trypsin assay buffer.
Inhibitors to be tested were dissolved in H2 O, methanol or DMSO just prior to use.
To each well in a 96-well microtiter plate, 270 μl of assay buffer was added. Bovine trypsin (10 μl of 6 μg/ml) was added. Inhibitor (10 μl ) was added, mixed, and then incubated at room temperature for 3 min. The enzymic reaction was started with 10 μl of 3 mM Z-Val-Gly-Arg-pNA substrate. The change in optical density was measured at 405 nm at room temperature. A kinetic microplate reader (Molecular Devices Corporation Vmax) was used to measure the change in optical density over time.
Results are reported in Table 1 as IC50 values, i.e., the drug concentration in mole/liter which caused 50% inhibition of the enzyme activity (after incubation of the drug with the enzyme for 3 min).

[2] = target: T2, human α-thrombin (Homo sapiens, UniProt P00734); experiment: Concentration required for doubling thrombin clotting time in human plasma; assay type: biochemical; conditions: human citrated plasma, 10 U/ml human thrombin; read-out: ED50, drug concentration required to double clotting time
T2 construct: purified human α-thrombin dissolved in thrombin assay buffer
Description: Procedure for Determining the Concentration Required for Doubling Thrombin Clotting Time--Clotting Time Assays The following reagents were used in these assays: Owren's Veronal Buffer: 125 mM NaCl, 28.4 mM sodium barbital, pH 7.35. Human citrated plasma obtained from human volunteers or citrated plasma obtained from IP-dosed animals (prepared as described below). 10 NIH Units/ml human α-thrombin in thrombin buffer for use with human plasma. […] The blood was centrifuged at […] (480×g) for 15 min at room temperature (using a Sorvall RT 6000B centrifuge). The plasma was removed, pooled, and aliquoted into small tubes which were stored frozen for later use. Clotting Time Measurement Clotting times were determined by pipetting 0.1 ml of Owren's buffer (pre-warmed 37° C.) and 0.1 ml of human or rat plasma into yellow sample cuvettes. For studies with human plasma 10 U/ml human thrombin (10 ml) was placed in the reservoir assembly station of the MLA 700. (Medical Laboratory Automation, Electra 700 Reservoir Assembly). For rat studies, the human thrombin concentration was 25 U/ml. The cuvettes were vortexed and then placed on the MLA 700 sample wheel. The coagulation timer (MLA 700) automatically dispenses 0.1 ml human thrombin into the sample in each cuvette. Detection of the fibrin clot was determined optically by the MLA 700. Studies were performed to determine the concentration of drug which caused a doubling of the clotting time in human plasma. From standard curves of thrombin activity added to the sample versus the clotting time, the concentration of drug which caused a doubling of the thrombin clotting time corresponded to inhibition of approximately 1/2 of the added thrombin clotting activity. Results are reported in Table 1 as ED50 values, i.e., the drug concentration required to double clotting time.

[3] = target: T2, human α-thrombin; experiment: Enzyme assay for the inhibition of thrombin (s-2238 substrate); assay type: biochemical; set-up: key to Thrombin k2 /ki (second order rate constant), cells with symbol *: *: not measurable; conditions: for pIC50: 3 min incubation of drug with enzyme, room temperature; for Thrombin k2 /ki (second order rate constant for inactivation of the enzyme) / Thrombin k2 /ki (second order rate constant), cells with symbol *: human α-thrombin; for Thrombin k2 /ki (second order rate constant for inactivation of the enzyme): s-2238, pH 7.4, room temperature; for Thrombin k2 /ki (second order rate constant), cells with symbol *: * = not measurable
Description: 1. Enzyme Assays for the Inhibition of Thrombin The following reagents were used in these assays: Thrombin assay buffer: 145 mM NaCl, 5 mM KCl, 30 mM N-2-hydroxyethyl piperazine-N'-2-ethanesulfonic acid, pH 7.4, 1 mg/ml polyethylene glycol (PEG-8000). 3 mM D-Phe-Pip-Arg-p-nitroanilide (s-2238) in H2 O. 3 U/ml purified human α-thrombin dissolved in thrombin assay buffer. Inhibitors to be tested were dissolved in H2 O, methanol, or DMSO just prior to use. Assay Procedure To each well in a 96-well microtiter plate, 270 μl of assay buffer was added. Human α-thrombin (10 μl of 3 U/ml) was added, then 10 μl of inhibitor were added and mixed. The samples were incubated at room temperature for a defined period of time (3 min for initial IC50 determinations). The enzymic reaction was started with 10 μl of 3 mM s-2238 substrate and continued at room temperature. The change in optical density was measured at 405 nm. A kinetic microplate reader (Molecular Devices Corporation Vmax) was used to measure the change in optical density over time. Results are reported in Table 1 as IC50 values, i.e., the drug concentration in mole/liter which caused 50% inhibition of the enzyme activity (after incubation of the drug with the enzyme for 3 min). Alternatively, results are also reported in Table 1 expressed as k2 /ki which is the second order rate constant in per mole per minute for inactivation time of the enzyme [Kitz, et al., J. Biol. Chem., 237, 3245 (1962)].

[4] = tested on: Thrombin Induced Clotting Time; experiment: Thrombin induced clotting time ex vivo in plasma of i.p. dosed rats; conditions: rat, 50 mg/kg i.p.
Description: Procedure for Determining the Concentration Required for Doubling Thrombin Clotting Time--Clotting Time Assays
as §1
Owren's Veronal Buffer: 125 mM NaCl, 28.4 mM sodium barbital, pH 7.35.
Human citrated plasma obtained from human volunteers or citrated plasma obtained from IP-dosed animals (prepared as described below).
25 NIH Units/ml human α-thrombin in thrombin buffer for use with rat plasma.
Test compound was prepared just prior to dosing. Routinely the drugs are dissolved in water. Animals were dosed by i.p. injection.
After the appropriate time period, the animals were ether-anesthetized, and blood was drawn by cardiac puncture using 333 μl of 3.8% sodium citrate per 3 ml blood. After all of the samples were obtained, the tubes were centrifuged at 1,500 rpm for 15 min as described for the human blood samples.
Clotting Time Measurement
Clotting times were determined by pipetting 0.1 ml of Owren's buffer (pre-warmed 37° C.) and 0.1 ml of human or rat plasma into yellow sample cuvettes. For studies with human plasma 10 U/ml human thrombin (10 ml) was placed in the reservoir assembly station of the MLA 700. (Medical Laboratory Automation, Electra 700 Reservoir Assembly). For rat studies, the human thrombin concentration was 25 U/ml. The cuvettes were vortexed and then placed on the MLA 700 sample wheel. The coagulation timer (MLA 700) automatically dispenses 0.1 ml human thrombin into the sample in each cuvette. Detection of the fibrin clot was determined optically by the MLA 700.
In separate studies, two compounds, Compound XIX and Compound XI, were dosed 50 mg/kg I.P. to three rats in each study group. […] "Term" indicates "terminated sample" where a clot was unable to form after approximately 99 seconds. When this occurred, the animal plasma was diluted 1: 1 with control rat plasma and the sample tested again. If need, the animal plasma was diluted 1:4 and tested again.

[5] = 0.5 hr. post dose, undiluted plasma, per animal

Row | Compound | pIC50 [1] | IC (2-fold clotting time) [2] | pIC50 [3] | Thrombin k2 /ki (second order rate constant for inactivation of the enzyme) [3] | other results
1 | CC(=O)N1C(=O)C(CCCNC(=N)N)C1C(=O)N1CCC[C@H]1C(=O)O (stereo partly drawn) [XVIII, trans-4-[(2-Carboxy-1-pyrrolidinyl)carbonyl]-3-(3-guanidino)-procyl-1-acetyl-2-azetidinone hydrochloride salt] |  | 1.25 µM | 7.31 | 4.3 × 10^6 m^-1 min^-1 | 
2 | CC(=O)N1C(=O)[C@@H](CCCNC(=N)N)[C@@H]1CCc1ccccc1 (relative stereo) [XV, trans-4-(2-Phenylethyl)-3-guanidinooropyl-1-acetyl-2azetidinone hydrochloride salt] | 6.33 | 3 µM | 6.68 | 1.5 × 10^6 m^-1 min^-1 | 
3 | CC(=O)N1C(=O)[C@H](CCCNC(=N)N)[C@@H]1C(=O)N1CCCCC1 (relative stereo) [XXIII, cis-4-(1-Piperidinocarbonyl)-3-guanidinopropyl-1-acetyl-2-azetidinone hydrochloride salt] |  | 20 µM |  | 4.3 × 10^4 m^-1 min^-1 | 
4 | CC(=O)OC1C(CCCNC(=N)N)C(=O)N1C(=O)C(C)(C)C (stereo not shown) [XXI, 4-Acetyloxy-3-guanidinopropyl-1-t-butylcarbonyl-2-azetidinone hydrochloride salt] |  |  | 7.13 |  | 
5 | CCS(=O)(=O)[C@H]1[C@H](CCCNC(=N)N)C(=O)N1C(C)=O (relative stereo) [Compound X, trans-4-Ethylsulfonyl-3-quanidinopropyl-1-acetyl-2-azetidinone hydrochloride salt] |  |  |  | 3.0 × 10^6 m^-1 min^-1 | 
6 | CC(=O)N1CC(CCCNC(=N)N)C1=O (stereo not shown) [VIII, 3-Guanidinopropyl-1-acetyl-2-azetidinone hydrochloride salt] |  |  | 7.00 |  | 
7 | CN(C)c1cccc2c(S(=O)(=O)N3CC(CCCNC(=N)N)C3=O)cccc12 (stereo not shown) [IX, 3-Guanidinopropyl-1-[(5-dimethylamino)-1-naphthanesulfonyl)]-2-azetidinone hydrochloride salt] |  | 30 µM | 6.00 |  | Thrombin k2 /ki (second order rate constant), cells with symbol * [3]: *
8 | COC(=O)[C@H]1[C@H](CCCCNC(=N)N)C(=O)N1S(=O)(=O)c1cccc2c(N(C)C)cccc12 (relative stereo) [XVII, trans-4-Methoxycarbonyl-3-(4-guanidinobutyl)-1-[(5-dimethylamino)-1-naphthalenesulfonyl]-2-azetidinone hydrochloride salt] |  | 50 µM |  | 3.7 × 10^5 m^-1 min^-1 | 

Now from value to compound, other results behind:

Row | pIC50 [1] | IC (2-fold clotting time) [2] | pIC50 [3] | Thrombin k2 /ki (second order rate constant for inactivation of the enzyme) [3] | Compound | other results
9 | 6.92 | 80 µM | 8.52 | 4.5 × 10^7 m^-1 min^-1 | Cc1ccc(S(=O)(=O)N2C(=O)[C@@H](CCCNC(=N)N)[C@@H]2C(=O)N2CCCCC2)cc1 (relative stereo) [XIII, trans-4-(1-Piperidinocarbonyl)-3-guanidinooropyl-1-p-toluenesulfonyl-2-azetidinone hydrochloride salt] | 
10 | 6.92 | 0.5 µM | 7.60 | 1.3 × 10^6 m^-1 min^-1 | CC(=O)N1C(=O)[C@@H](CCCNC(=N)N)[C@@H]1C(=O)Nc1ccc(C)cc1 (relative stereo) [XVI, trans-4-(4-Methylbenzeneaminocarbonyl)-3-guanidinopropyl-1-acetyl-2-azetidinone hydrochloride salt] | 
11 | 7.15 |  | 7.70 | 1.5 × 10^6 m^-1 min^-1 | COC(=O)[C@H]1[C@H](CCCNC(=N)N)C(=O)N1S(C)(=O)=O.Cl (relative stereo) [IV, trans-4-Methoxycarbonyl-3-(guanidinopropyl)-1-methylsulfonyl-2-azetidinone hydrochloride salt] | 
12 |  | 0.43 µM | 7.92 | 2.0 × 10^7 m^-1 min^-1 | CC(=O)N1C(=O)[C@@H](CCCNC(=N)N)[C@@H]1C(=O)NCC(=O)O (relative stereo) [Compound XIX, 4-[[(2-Hydroxy-2-oxoethyl)amino]carbonyl]-3-(3-guanidinopropyl)-1-acetyl-2-azetidinone hydrochloride salt] | Thrombin Induced Clotting Time (1:1 Control Plasma) ([4]; 0.5 hr. post dose, plasma diluted 1:1 with control rat plasma, hydrochloride salt, 50 mg/kg, in s): 14.4 and 17.3; Thrombin Induced Clotting Time [4, 5]: 45.2 s; Thrombin Induced Clotting Time, terminated samples [4, 5]: term. ("terminated sample" where a clot was unable to form after approximately 99 seconds); Thrombin Induced Clotting Time ([4]; 2 hr. post dose, undiluted plasma, per animal, hydrochloride salt, 50 mg/kg): 12.9 s and 13.3 s and 14.4 s; Thrombin Induced Clotting Time ([4]; 5 hr. post dose, undiluted plasma, per animal, hydrochloride salt, 50 mg/kg): 13.5 s and 13.6 s and 13.3 s; Clotting time ex vivo, result in words ([4]; three rats per group): prolonged clotting time
13 |  | 10.0 µM | 7.46 |  | CC(=O)OC1C(CCCNC(=N)N)C(=O)N1C(=O)c1ccccc1 (stereo not shown) [XXII, 4-Acetyloxy-3-guanidinooropyl-1-phenylcarbonyl-2-azetidinone hydrochloride salt] | Thrombin k2 /ki (second order rate constant), cells with symbol * [3]: *
